In experiment [1] the target is T1, 1,3-beta-glucan synthase (Candida albicans, UniProt O13423). The experiment can be described thus: Inhibition of glucan synthase in Candida albicans ATCC 36082 in presence of 50% human serum.
Experiment [2] has as its target T1, 1,3-beta-glucan synthase. The experiment can be described thus: Inhibition of glucan synthase in Candida albicans ATCC 36082 in presence of 20% human serum.
The target in experiment [3] is T1, 1,3-beta-glucan synthase. The experiment can be described thus: Inhibition of glucan synthase in Candida albicans 36082 assessed as incorporation of [3H]uridine diphosphoglucose.
For experiment [4], the target named is T1, 1,3-beta-glucan synthase. The experiment can be described thus: Inhibition of glucan synthase in Candida albicans ATCC 90028 in presence of 50% human serum.
The target of experiment [5] is T1, 1,3-beta-glucan synthase. The experiment can be described thus: Inhibition of glucan synthase in Candida albicans ATCC 90028 in presence of 20% human serum.
In experiment [6] the target is T1, 1,3-beta-glucan synthase. The experiment can be described thus: Inhibition of glucan synthase in Candida albicans 36082 assessed as incorporation of [3H]uridine diphosphoglucose in presence of 50% serum.
Experiment [7] deals with T1, 1,3-beta-glucan synthase. The experiment can be described thus: Inhibition of glucan synthase in Candida albicans SC5314 in presence of 10% human serum.
The target of experiment [8] is T1, 1,3-beta-glucan synthase. The experiment can be described thus: Inhibition of glucan synthase in Candida albicans ATCC 36082.
For experiment [9], the target named is T1, 1,3-beta-glucan synthase. The experiment can be described thus: Inhibition of glucan synthase in Candida albicans SC5314 in presence of 50% human serum.
In experiment [10] the target is T1, 1,3-beta-glucan synthase. The experiment can be described thus: Inhibition of glucan synthase in Candida albicans ATCC 36082 in presence of 10% human serum.
Experiment [11] has as its target T1, 1,3-beta-glucan synthase. The experiment can be described thus: Inhibition of glucan synthase in Candida albicans SC5314 in presence of 20% human serum.

The text below walks through data of BindingDB's records for doi:10.1128/aac.01536-06 (Public Health Research Institute, 2007).

T1 sequence (O13423 whole entry): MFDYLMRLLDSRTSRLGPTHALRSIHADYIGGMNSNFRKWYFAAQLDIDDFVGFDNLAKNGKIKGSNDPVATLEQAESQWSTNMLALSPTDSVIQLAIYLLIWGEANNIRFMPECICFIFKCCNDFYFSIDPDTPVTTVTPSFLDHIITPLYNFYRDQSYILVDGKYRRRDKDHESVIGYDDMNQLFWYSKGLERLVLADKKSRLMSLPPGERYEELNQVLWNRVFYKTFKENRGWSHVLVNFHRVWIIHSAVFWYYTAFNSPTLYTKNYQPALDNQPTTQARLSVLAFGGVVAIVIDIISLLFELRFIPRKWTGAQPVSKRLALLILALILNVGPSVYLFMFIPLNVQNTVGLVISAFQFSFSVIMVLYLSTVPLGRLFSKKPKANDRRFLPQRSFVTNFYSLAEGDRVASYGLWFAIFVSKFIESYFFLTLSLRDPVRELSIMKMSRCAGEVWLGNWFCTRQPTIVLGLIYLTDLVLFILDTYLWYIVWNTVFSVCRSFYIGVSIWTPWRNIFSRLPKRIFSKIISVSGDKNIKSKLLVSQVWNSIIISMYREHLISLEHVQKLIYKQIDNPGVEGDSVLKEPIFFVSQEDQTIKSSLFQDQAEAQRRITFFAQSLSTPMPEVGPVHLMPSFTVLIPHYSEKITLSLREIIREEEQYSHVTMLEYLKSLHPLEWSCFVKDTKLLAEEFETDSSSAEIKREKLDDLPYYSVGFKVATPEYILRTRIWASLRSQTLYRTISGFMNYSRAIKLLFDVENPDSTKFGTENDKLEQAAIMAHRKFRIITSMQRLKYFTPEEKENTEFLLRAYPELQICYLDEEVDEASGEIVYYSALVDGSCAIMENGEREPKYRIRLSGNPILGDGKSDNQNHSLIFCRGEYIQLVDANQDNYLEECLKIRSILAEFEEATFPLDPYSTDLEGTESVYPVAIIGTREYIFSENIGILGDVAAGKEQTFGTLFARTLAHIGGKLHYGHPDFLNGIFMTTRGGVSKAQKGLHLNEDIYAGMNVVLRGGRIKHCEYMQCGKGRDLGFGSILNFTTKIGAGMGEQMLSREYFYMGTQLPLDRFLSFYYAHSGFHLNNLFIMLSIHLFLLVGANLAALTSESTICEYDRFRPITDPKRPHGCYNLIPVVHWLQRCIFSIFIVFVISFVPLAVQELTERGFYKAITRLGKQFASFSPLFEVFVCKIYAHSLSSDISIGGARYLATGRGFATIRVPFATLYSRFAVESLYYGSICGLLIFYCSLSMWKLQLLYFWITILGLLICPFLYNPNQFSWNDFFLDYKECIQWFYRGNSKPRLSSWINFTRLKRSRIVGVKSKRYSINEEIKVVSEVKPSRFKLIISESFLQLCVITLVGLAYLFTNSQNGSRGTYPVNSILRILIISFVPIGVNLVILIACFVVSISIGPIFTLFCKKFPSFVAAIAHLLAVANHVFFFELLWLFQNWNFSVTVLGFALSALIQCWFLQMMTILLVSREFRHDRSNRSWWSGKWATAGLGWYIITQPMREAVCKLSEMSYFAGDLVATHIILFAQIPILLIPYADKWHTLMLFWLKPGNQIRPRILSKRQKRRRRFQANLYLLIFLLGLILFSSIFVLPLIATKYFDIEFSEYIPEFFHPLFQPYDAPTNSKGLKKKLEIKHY

Broadly, the IC50 is the point on the concentration scale where inhibition reaches its midpoint. In the case of `CCC(C)CC(C)CCCCCCCCC(=O)N[C@H]1C[C@@H](O)[C@@H](NCCN)NC(=O)[C@@H]2[C@@H](O)CCN2C(=O)[C@H]([C@H](O)CCN)NC(=O)[C@H]([C@H](O)[C@@H](O)c2ccc(O)cc2)NC(=O)[C@@H]2C[C@@H](O)CN2C(=O)[C@H]([C@@H](C)O)NC1=O` (stereo partly specified) [CHEBI:474180], the IC50 at 1,3-beta-glucan synthase [1] was 8.7 nM; on 1,3-beta-glucan synthase [2], 5.3 nM; at 1,3-beta-glucan synthase [3], 0.33 nM; at 1,3-beta-glucan synthase [4], 6.3 nM; at 1,3-beta-glucan synthase [5], 2.1 nM; at 1,3-beta-glucan synthase [6], 6.2 nM. In addition, the IC50 on 1,3-beta-glucan synthase [7] turned out to be 27 nM; against 1,3-beta-glucan synthase [8] it was 0.9 nM; at 1,3-beta-glucan synthase [9] it was 81 nM; on 1,3-beta-glucan synthase [10], 2.8 nM; on 1,3-beta-glucan synthase [11] it was 37 nM.
